Key:
[1] = Inhibition of glycogen phosphorylase (unknown origin); design: species or system Homo sapiens
[2] = biological target: T1, Glycogen phosphorylase, muscle form (Oryctolagus cuniculus, UniProt P00489); assay: Inhibition of glycogen phosphorylase b in rabbit skeletal muscle using glycogen substrate and glucose-1-phosphate by Lineweaver-Burk plot method
T1 sequence (P00489 whole entry): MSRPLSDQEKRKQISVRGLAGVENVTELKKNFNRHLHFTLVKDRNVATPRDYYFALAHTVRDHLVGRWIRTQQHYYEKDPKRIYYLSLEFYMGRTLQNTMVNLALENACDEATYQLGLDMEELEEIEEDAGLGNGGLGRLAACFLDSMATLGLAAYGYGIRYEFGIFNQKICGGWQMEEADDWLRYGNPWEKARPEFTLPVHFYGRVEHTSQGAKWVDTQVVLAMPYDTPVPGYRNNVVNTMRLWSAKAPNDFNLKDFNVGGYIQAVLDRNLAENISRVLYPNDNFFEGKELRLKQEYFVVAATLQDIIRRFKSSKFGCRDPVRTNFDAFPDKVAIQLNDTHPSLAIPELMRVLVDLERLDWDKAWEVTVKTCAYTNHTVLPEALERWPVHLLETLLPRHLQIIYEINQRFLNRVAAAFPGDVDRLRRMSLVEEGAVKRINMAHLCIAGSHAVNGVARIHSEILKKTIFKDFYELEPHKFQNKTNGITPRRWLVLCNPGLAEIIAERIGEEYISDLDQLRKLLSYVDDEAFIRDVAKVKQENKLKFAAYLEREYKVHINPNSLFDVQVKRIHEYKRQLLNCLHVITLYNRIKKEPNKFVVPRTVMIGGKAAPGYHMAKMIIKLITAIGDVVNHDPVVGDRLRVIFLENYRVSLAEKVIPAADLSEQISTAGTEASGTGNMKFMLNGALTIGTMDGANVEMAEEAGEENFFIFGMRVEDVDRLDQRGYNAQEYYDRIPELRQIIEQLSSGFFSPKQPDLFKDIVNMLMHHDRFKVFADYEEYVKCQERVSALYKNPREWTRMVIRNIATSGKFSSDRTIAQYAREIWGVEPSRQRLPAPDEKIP

| Ki [1] | Ki [2] | SMILES | Ki ([2]; read-out: Ki) |
| --- | --- | --- | --- |
| 0.35 µM | – | O=C(NC(=O)c1ccc2ccccc2c1)N[C@@H]1O[C@H](CO)[C@@H](O)[C@H](O)[C@H]1O | – |
| – | Not Active | O=C(N[C@@H]1O[C@H](CO)[C@@H](O)[C@H](O)[C@H]1O)c1noc(-c2ccc3ccccc3c2)n1 | – |

Continued, compound first:

| SMILES | Ki [1] | Ki [2] | Ki ([2]; read-out: Ki) |
| --- | --- | --- | --- |
| O=C(N[C@@H]1O[C@H](CO)[C@@H](O)[C@H](O)[C@H]1O)c1nnc(-c2ccccc2)[nH]1 | – | – | 1 µM |
| O=C(N[C@@H]1O[C@H](CO)[C@@H](O)[C@H](O)[C@H]1O)c1nc(-c2ccc3ccccc3c2)no1 | – | Not Active | – |
| O=C(N[C@@H]1O[C@H](CO)[C@@H](O)[C@H](O)[C@H]1O)c1nnc(-c2ccc3ccccc3c2)[nH]1 | – | – | 9.2 µM |
